Results published in patent US10640452B2, “Branched trialkyl quaternary ammonium compounds” (Eastman Chemical Company, priority 2018, dated 2020).

Assays:
Staphylococcus aureus = assay: Antimicrobial screening, microplate dilution assay (MIC) and agar spotting (MLC); assay type: cell-based; settings: Staphylococcus aureus (Gram pos bacteria); for MIC < 10%: lowest concentration with growth less than 10% of control; for MIC < 10% / MIC < 50%: approx. 24 h, 32° C.; for MIC < 50%: lowest concentration with growth less than 50% of control; for MLC: minimum lethal concentration, absence of growth on agar
Description: (§1) The minimum inhibitory concentration (MIC) and the minimum lethal concentration (MLC) of the chemicals were determined using a microplate dilution assay. Quats were provided as aqueous solutions, while Triclosan and Chloroxylenol were provide as powders which were first dissolved at 5 weight percent in absolute ethanol. A two-fold serial dilution series of each test chemical was prepared in Trypticase Soy Broth at 20% of the standard concentration (TSB20) and in Sabouraud Dextrose Broth at 20% of the standard concentration (SDB20) in 96-well micro-titer plates. A total of 10 dilutions were prepared and four replicate tests were performed for each dilution. […] Control solutions containing only media were included for each plate. Suspensions of Staphylococcus aureus, Escherichia coli, and Candida albicans were prepared from one-day old agar plate cultures in Butterfields Phosphate Diluent to a concentration of approximately 10^7 to 10^8 cells per milliliter. Each test well was inoculated with the diluted culture suspensions at a concentration of 10^3 to 10^4 cells per well and then incubated at 32° C. with shaking at 150 rpm for approximately 24 hours, after which the optical density of each well was determined spectrophotometrically at 600 nm. Wells containing uninoculated media without test chemical were included in each plate as negative controls and, following inoculation, as positive controls.
(§2) Selected wells at or below the MIC were tested for MLC by spotting three microliters from each replicate well onto Trypticase Soy agar for S. aureus and E. coli, or Sabouraud Dextrose agar for C. albicans.

Escherichia coli = assay: as above; assay type: cell-based; settings: Escherichia coli (Gram neg bacteria); for MIC < 10%: lowest concentration with growth less than 10% of control; for MIC < 10% / MIC < 50%: approx. 24 h, 32° C.; for MIC < 50%: lowest concentration with growth less than 50% of control; for MLC: minimum lethal concentration, absence of growth on agar
Description: as §1, §2

Candida albicans = assay: as above; assay type: cell-based; settings: Candida albicans (yeast); for MIC < 10%: lowest concentration with growth less than 10% of control; for MIC < 10% / MIC < 50%: approx. 24 h, 32° C.; for MIC < 50%: lowest concentration with growth less than 50% of control; for MLC: minimum lethal concentration, absence of growth on agar
Description: as §1, §2

[1] = Ready Biodegradability - CO2 Evolution Test OECD 301B
Description: The biodegradability of the branched aldehyde intermediates of Example 2 (4-ethyl-2-methyloctanal) and Example 25 (2,4-diethyl-2-octenal) were determined by the Ready Biodegradability—CO2 Evolution Test—Degradation of test compound according to OECD Guidelines for Testing of Chemicals CO2 Evolution Test 301B.

Row | Structure (SMILES) | MIC < 10% (Staphylococcus aureus) | MIC < 50% (Staphylococcus aureus) | MLC (Staphylococcus aureus) | MIC < 10% (Escherichia coli) | MIC < 50% (Escherichia coli) | MLC (Escherichia coli) | MIC < 10% (Candida albicans) | MIC < 50% (Candida albicans) | MLC (Candida albicans) | Biodegradation (%) ([1]; day 0) | Biodegradation (%) ([1]; day 2) | Biodegradation (%) ([1]; day 6) | Biodegradation (%) ([1]; day 7) | Biodegradation (%) ([1]; day 9) | Biodegradation (%) ([1]; day 14) | Biodegradation (%) ([1]; day 19) | Biodegradation (%) ([1]; day 23) | Biodegradation (%) ([1]; day 28) | Biodegradation (%) ([1]; day 29 (first line)) | Biodegradation (%) ([1]; day 29 (second line))
1 | CCCCCCCCCCCC[N+](C)(C)Cc1ccccc1.[Cl-] [BAC-12 linear, benzalkonium chloride, C12] | 0.0002 Weight percent | 0.0002 Weight percent | 0.0002 Weight percent | 0.00078 Weight percent | 0.00078 Weight percent | 0.00078 Weight percent | 0.0016 Weight percent | 0.00078 Weight percent | 0.0016 Weight percent | – | – | – | – | – | – | – | – | – | – | –
2 | CCCCC(CC)CC(C)C=O (stereo not drawn) [Example 2, 4-ethyl-2-methyloctanal] | – | – | – | – | – | – | – | – | – | 0% | 0% | 15% | 21% | 31% | 47% | 54% | 56% | 57% | 57% | 61%
3 | CCCCC(CC)CC(C=O)CC (stereo not drawn) [Example 25, 2,4-diethyloctanal] | – | – | – | – | – | – | – | – | – | 0% | 0% | 0% | 9% | 27% | 48% | 53% | 53% | 55% | 55% | 57%
4 | Oc1cc(Cl)ccc1Oc1ccc(Cl)cc1Cl [Triclosan] | 0.00002 Weight percent | 0.00002 Weight percent | 0.00003 Weight percent | 0.00010 Weight percent | 0.00010 Weight percent | 0.00010 Weight percent | 0.0016 Weight percent | 0.0016 Weight percent | >0.0016 Weight percent | – | – | – | – | – | – | – | – | – | – | –
5 | CC(=O)[O-].[Na+] [sodium acetate] | – | – | – | – | – | – | – | – | – | 0% | 32% | 52% | 54% | 60% | 66% | 69% | 71% | 72% | 74% | 78%
